≈ marks a conversion by molar mass, not a printed value.
Key:
ERα = target: T1, ERα (Homo sapiens, UniProt P03372); assay: Luciferase reporter gene assay, ERα antagonistic activity; assay type: cell-based; conditions: HEK 293 cells, GAL4N-human ERα ligand binding domain, with 0.3 nM estradiol, 24 h; mean ± SD
T1 construct: expressed in transfected cells; host or cells: HEK 293 cells
T1 sequence (P03372 311-547 limits assumed): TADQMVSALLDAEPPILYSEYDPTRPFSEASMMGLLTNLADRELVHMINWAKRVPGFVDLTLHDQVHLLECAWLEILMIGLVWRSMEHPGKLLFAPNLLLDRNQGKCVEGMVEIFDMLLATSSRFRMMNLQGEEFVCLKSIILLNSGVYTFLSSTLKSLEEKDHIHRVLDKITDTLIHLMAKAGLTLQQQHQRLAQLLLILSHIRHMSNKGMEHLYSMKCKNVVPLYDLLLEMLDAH
Procedure: (§1) HEK 293 cells were cultured in DMEM supplemented with 10% FBS and penicillin and streptomycin at 37 °C in a humidified incubator (5% CO2).
(§2) HEK 293 cells were plated at 20% confluence in a 96-well plate at 24 h prior to transfection. Transfection of plasmids (CMX-GAL4N-human ERα/β ligand binding domain, TK-MH100x4-Luc, CMX-β-galactosidase) was performed by the calcium phosphate coprecipitation method. Test compounds in DMSO (final 0.5%) were added at 24 h after transfection, together with 0.3 nM estradiol. The plate was incubated for 24 h, then luciferase substrate solution was added to each well and luminescence was measured on an EnVision microplate reader. β-Galactosidase was added and the absorbance was measured on the microplate reader with emission detection at 405 nm. Each sample was evaluated in triplicate for two times and the mean value was calculated. A six-point sigmoidal dose-response curve was generated for each compound. The IC50 value for each compound was calculated by Origin software. In Table 4, biological reproducibility is reported as the mean IC50 SD.

ERβ = target: T2, ERβ (Homo sapiens, UniProt Q92731); assay: Luciferase reporter gene assay, ERβ antagonistic activity; assay type: cell-based; conditions: HEK 293 cells, GAL4N-human ERβ ligand binding domain, with 0.3 nM estradiol, 24 h; mean ± SD
T2 construct: expressed in transfected cells; host or cells: HEK 293 cells
Procedure: as §1, §2

[1] = system: human cryopreserved hepatocytes; assay: Metabolic rate of prodrugs in human cryopreserved hepatocytes; assay type: in vitro ADME; conditions: human hepatocytes 1.0×10^6 cells/mL, 50 μM, 2 h, 37 °C
Procedure: The metabolic rate of prodrugs was evaluated using human cryopreserved hepatocytes (Table 3). Although the metabolic rate of 3d with a bulky acyl group was decreased, most of the asymmetric structural analogs, including those with improved aqueous solubility (3b, 4a, (R)-4c), were metabolized to the active form as quickly as 1. Thus, we concluded that the chemical modifications applied here had little effect on the metabolic rate.
(§3) Test compounds (final 50 μM) in DMSO (final 0.5%) were added to a suspension of human hepatocytes (HMCS1S, Thermo Fisher Scientific) at a density of 1.0×10^6 cells/mL. The cells were incubated at 37 °C in humidified incubator (5% CO2) for 2 h, and then acetonitrile was added to stop the reaction. The mixture was vortexed and centrifuged at 15000 rpm for 10 min. HPLC analysis of the supernatant was performed on an analytical column (ODS reversed-phase column, 5 μm, 4.6 mm x 150 mm) eluted with a mobile phase consisting of H2O and CH3CN at a flow rate of 1.0 mL/min at 37 °C, with UV monitoring at 254 nm. Because some analogs were hydrolyzed in the absence of hepatocytes, we also evaluated the hydrolysis rate without hepatocytes.

[2] = Membrane permeability by retention on IAM column; assay type: in vitro ADME; conditions: IAM.PC.DD2 column, 0.1 M phosphate buffer (pH 6.8) in 60% CH3CN, 1.0 mL/min, 37 °C
Procedure: Membrane permeability was determined by HPLC on an IAM.PC.DD2 column (Regis Technologies, Inc., 10 μm, 300 Å, 30 mm × 4.6 mm) eluted with mobile phase consisting of 0.1 M phosphate buffer (pH 6.8) and CH3CN (4:6) at a flow rate of 1.0 mL/min, with UV monitoring at 254 nm, 37 °C.
Firstly, we evaluated membrane permeability by using an Immobilized Artificial Membrane (IAM) column, which contains silica gel bearing phosphatidylcholine and widely utilized to predict membrane permeability[31],[32].

[3] = Hydrolysis of prodrugs without hepatocytes; assay type: in vitro ADME; conditions: 50 μM, 2 h, 37 °C
Procedure: as §3

LogP = assay type: physicochemical
Text: LogP values of all analogs were higher than that of 1, as expected. […] The observation that the measured crystal densities of 3b, 4a and (R)-4c were lower than that of 1 supports this idea.

[4] = Thermodynamic aqueous solubility of the most stable crystals; assay type: physicochemical; conditions: for solubility at 48 h: phosphate buffer/EtOH (6:4), aqueous with cosolvent or surfactant or cyclodextrin, thermodynamic from solid, mixture of 0.067 M phosphate buffer (pH 6.8) and EtOH (6:4), shaken 48 h at 4 °C, most stable crystals; for Fold more soluble than symmetric isomer 6: relative to 6
Procedure: The crystals were ground with an agate mortar and suspended in a mixture of 0.067 M phosphate buffer (pH 6.8) and EtOH (6:4). The suspension was shaken for 48 h at 4 °C, then filtered through a Millipore Millex-LG filter (0.20 μm). The filtrate was diluted in DMF and subjected to HPLC. The solubility was calculated by the absolute calibration curve method. We used a mixed solvent because the solubility in 0.067 M phosphate buffer (pH 6.8) was too low to allow quantification. EtOH is used clinically as a solubilizer for insoluble drugs such as taxol and pacritaxel. When the solutions were shaken at 37 °C, hydrolysis of the ester moiety occurred, and therefore the suspensions were shaken at 4 °C.

[5] = Crystal density (X-ray crystallography); assay type: physicochemical; conditions: measured crystal density
[6] = Aqueous solubility in 0.067 M phosphate buffer pH 7.4; assay type: physicochemical
Procedure: Cyclofenil (1) is an antagonist of estrogen receptors (ER) α and β that is clinically used to treat menstrual disturbances, anovulatory infertility and menopausal symptoms (Fig. 1). However, 1 has poor aqueous solubility (< 1 μg/mL in 0.067 M phosphate buffer pH 7.4). We considered that this low solubility might be due to the symmetric structure (σ = 2, point group: C2v), and we hypothesized that chemical modification of 1 to an asymmetric structure (point group: Cs and C1) would improve the aqueous solubility. To investigate the relationship between molecular shape (symmetry) and aqueous solubility, we focused on a small chemical modification, that is, introduction of a hydrophobic alkyl group. Cyclofenil (1) is a prodrug that is hydrolyzed by esterases after administration, and the active form is diol 2. Therefore, we initially considered that replacement of an acetyl group on 1 with a different acyl group (3a–d) might improve the aqueous solubility without loss of biological activity. As a second approach, we designed methylated analogs 4a–c substituted at the 2-/3-position of the phenyl group or the 3-position of the cyclohexyl group, respectively. We also designed symmetrical analogs 5a–c and 6 for comparison.

[7] = phosphate buffer (pH 6.8)/EtOH (6:4)

T2 sequence (Q92731 264-498 limits assumed): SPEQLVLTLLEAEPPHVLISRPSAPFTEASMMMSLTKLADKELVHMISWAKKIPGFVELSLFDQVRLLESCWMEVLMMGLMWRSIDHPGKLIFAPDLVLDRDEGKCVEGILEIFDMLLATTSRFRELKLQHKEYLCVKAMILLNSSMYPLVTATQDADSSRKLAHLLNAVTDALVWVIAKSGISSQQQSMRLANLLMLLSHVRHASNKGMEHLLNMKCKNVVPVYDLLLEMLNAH

IC50 (ERα) | IC50 (ERβ) | Crystal density [5] | Fold more soluble than 1 ([4]; relative to cyclofenil (1), phosphate buffer (pH 6.8)/EtOH (6:4)) | solubility [6] | SMILES | Hydrolysis rate with hepatocytes [1] | melting point | Retention time on IAM column [2] | Hydrolysis rate without hepatocytes [3] | logP (LogP) | solubility at 48 h [4] | Fold more soluble than symmetric isomer 5a ([4]; relative to 5a, phosphate buffer (pH 6.8)/EtOH (6:4)) | Fold more soluble than symmetric isomer 6 [4, 7]
13 ± 7.5 nM | 4.5 ± 0.99 nM |  |  |  | Oc1ccc(C(=C2CCCCC2)c2ccc(O)cc2)cc1 [Compound 2, Bis(4-hydroxyphenyl)methylenecyclohexane, reference compound] |  |  |  |  |  |  |  | 
 |  | 1.243 g/mL |  |  | CC(=O)Oc1ccc(C(=C2CCC(C)CC2)c2ccc(OC(C)=O)cc2)cc1 (stereo not shown) [Compound 6, ((4-Methylcyclohexylidene)methylene)bis(4,1-phenylene)diacetate] |  | 137 °C |  |  | 5.41 | 3.61 µg/mL (≈ 9.54 µM) |  | 
16 ± 0.71 nM | 4.5 ± 0.57 nM |  |  |  | C[C@@H]1CCCC(=C(c2ccc(O)cc2)c2ccc(O)cc2)C1 [(R)-13a, (R)-4,4’-((3-Methylcyclohexylidene)methylene)diphenol] |  |  |  |  |  |  |  | 
120 ± 7.1 nM | 51 ± 40 nM |  |  |  | Cc1cc(C(=C2CCCCC2)c2ccc(O)cc2)ccc1O [Compound 10a, 4-(Cyclohexylidene(4-hydroxyphenyl)methyl)-2-methylphenol] |  |  |  |  |  |  |  | 
 |  | 1.244 g/mL |  |  | CCCC(=O)Oc1ccc(C(=C2CCCCC2)c2ccc(OC(=O)CCC)cc2)cc1 [Compound 5b, (Cyclohexylidenemethylene)bis(4,1-phenylene)dibutyrate] |  | 80.9 °C |  |  | 7.08 | 0.964 µg/mL (≈ 2.29 µM) |  | 
 |  | 1.268 g/mL |  | < 1 µg/mL | CC(=O)Oc1ccc(C(=C2CCCCC2)c2ccc(OC(C)=O)cc2)cc1 [Compound 1, cyclofenil] | 100% |  | 3.15 min | 14.8% | 4.91 | 7.76 µg/mL (≈ 21.3 µM) |  | 

More lines, now with the values behind:

SMILES | IC50 (ERα) | IC50 (ERβ) | Crystal density [5] | Fold more soluble than 1 ([4]; relative to cyclofenil (1), phosphate buffer (pH 6.8)/EtOH (6:4)) | solubility [6] | Hydrolysis rate with hepatocytes [1] | melting point | Retention time on IAM column [2] | Hydrolysis rate without hepatocytes [3] | logP (LogP) | solubility at 48 h [4] | Fold more soluble than symmetric isomer 5a ([4]; relative to 5a, phosphate buffer (pH 6.8)/EtOH (6:4)) | Fold more soluble than symmetric isomer 6 [4, 7]
CCCC(=O)Oc1ccc(C(=C2CCCCC2)c2ccc(OC(C)=O)cc2)cc1 [Compound 3b, 4-((4-Acetoxyphenyl)(cyclohexylidene)methyl)phenylbutyrate] |  |  | 1.236 g/mL |  |  | 92.1% | 69 °C | 5.97 min | 6.3% | 6 | 10.8 µg/mL (≈ 27.5 µM) | 17.3 fold | 
CC(C)C(=O)Oc1ccc(C(=C2CCCCC2)c2ccc(OC(=O)C(C)C)cc2)cc1 [Compound 5c, (Cyclohexylidenemethylene)bis(4,1-phenylene)bis(2-methylpropanoate)] |  |  |  |  |  |  | 129 °C |  |  | 7.16 | 0.0811 µg/mL (≈ 0.193 µM) |  | 
CC(=O)Oc1ccc(C(=C2CCCCC2)c2ccc(OC(=O)C(C)(C)C)cc2)cc1 [Compound 3d, 4-((4-Acetoxyphenyl)(cyclohexylidene)methyl)phenylpivalate] |  |  |  |  |  | 77.7% | 127 °C | 8.44 min | 0% | 6.5 | 2.25 µg/mL (≈ 5.53 µM) |  | 
CCC(=O)Oc1ccc(C(=C2CCCCC2)c2ccc(OC(C)=O)cc2)cc1 [Compound 3a, 4-((4-Acetoxyphenyl)(cyclohexylidene)methyl)phenylpropionate] |  |  |  |  |  | 100% | 132.8 °C | 4.22 min | 15.8% | 5.48 | 3.38 µg/mL (≈ 8.93 µM) |  | 
CC(=O)Oc1ccc(C(=C2CCCCC2)c2ccc(OC(=O)C(C)C)cc2)cc1 [Compound 3c, 4-((4-Acetoxyphenyl)(cyclohexylidene)methyl)phenylisobutyrate] |  |  |  |  |  | 94.5% | 136.5 °C | 5.93 min | 0% | 6.01 | 0.719 µg/mL (≈ 1.83 µM) |  | 
CCC(=O)Oc1ccc(C(=C2CCCCC2)c2ccc(OC(=O)CC)cc2)cc1 [Compound 5a, (Cyclohexylidenemethylene)bis(4,1-phenylene)dipropionate] |  |  |  |  |  |  | 139 °C |  |  | 6.02 | 0.622 µg/mL (≈ 1.58 µM) |  | 
CC(=O)Oc1ccc(C(=C2CCCCC2)c2ccc(OC(C)=O)cc2C)cc1 [Compound 4b, 4-((4-Acetoxy-2-methylphenyl)(cyclohexylidene)methyl)phenylacetate] |  |  |  |  |  |  | 99.9 °C |  |  | 5.12 | 23.6 µg/mL (≈ 62.4 µM) |  | 6.5 fold
CC(=O)Oc1ccc(C(=C2CCC[C@@H](C)C2)c2ccc(OC(C)=O)cc2)cc1 [(R)-4c, (R)-((3-Methylcyclohexylidene)methylene)bis(4,1-phenylene)diacetate] |  |  | 1.227 g/mL | 3.6 fold |  | 100% | 92 °C | 3.93 min | 13.8% | 5.34 | 27.8 µg/mL (≈ 73.5 µM) |  | 7.7 fold
CC(=O)Oc1ccc(C(=C2CCCCC2)c2ccc(OC(C)=O)c(C)c2)cc1 [Compound 4a, 4-((4-Acetoxy-3-methylphenyl)(cyclohexylidene)methyl)phenylacetate] |  |  |  |  |  | 100% | 114 °C | 3.72 min | 0% | 5.26 | 10.3 µg/mL (≈ 27.2 µM) |  | 2.9 fold
